Data from ChEMBL document CHEMBL3232945 (Eur J Med Chem, 2014).

Legend:
Rattus norvegicus [1] = test: Toxicity in […] normotensive Wistar rat assessed as mean arterial pressure at 40 mg/kg, ip after 15 mins (reference value: 93.81 +/- 1.543 mmHg); assay type: organism-based, Artery; design: dose 40 mg/kg, route intraperitoneal; settings: in vivo, 0.25 h
Rattus norvegicus [2] = test: Antihypertensive activity in Wistar rat assessed as mean arterial pressure at 40 mg/kg, ip after 45 mins (reference value: 193.96 +/- 0.865 mmHg); assay type: functional, Artery; settings: route intraperitoneal
Rattus norvegicus [3] = test: Toxicity in anesthetized-normotensive Wistar rat assessed as heart rate at 40 mg/kg, ip measured immediately at 0 min (reference value: 316.62 +/- 9.643 bpm); assay type: organism-based; design: dose 40 mg/kg, route intraperitoneal; settings: in vivo, 0 h
Rattus norvegicus [4] = test: Antihypertensive activity in Wistar rat assessed as mean arterial pressure at 40 mg/kg, ip after 60 mins (reference value: 195.11 +/- 0.531 mmHg); assay type: functional, Artery; settings: route intraperitoneal
Rattus norvegicus [5] = test: Toxicity in anesthetized-normotensive Wistar rat assessed as heart rate at 40 mg/kg, ip after 45 mins (reference value: 316.82 +/- 8.452 bpm); assay type: organism-based; design: dose 40 mg/kg, route intraperitoneal; settings: in vivo, 0.75 h
Rattus norvegicus [6] = test: Antihypertensive activity in Wistar rat assessed as mean arterial pressure at 40 mg/kg, ip measured immediately at 0 min (reference value: 194.08 +/- 1.962 mmHg); assay type: functional, Artery; settings: route intraperitoneal
Rattus norvegicus [7] = test: Toxicity in anaesthetized-Wistar rat assessed as QRS ECG interval at 40 mg/kg, ip after 15 mins (reference value: 18.9 +/- 1.563 ms); assay type: organism-based; design: dose 40 mg/kg, route intraperitoneal; settings: in vivo, 0.25 h
Rattus norvegicus [8] = test: Toxicity in […] normotensive Wistar rat assessed as mean arterial pressure at 40 mg/kg, ip measured immediately at 0 min (reference value: 94.21 +/- 2.065 mmHg); assay type: organism-based, Artery; design: dose 40 mg/kg, route intraperitoneal; settings: in vivo, 0 h
Rattus norvegicus [9] = test: Antiarrhythmic activity in barium chloride-induced Wistar rat assessed as increase in mortality time at 40 mg/kg, ip administered 60 mins before barium chloride challenge (reference value: 682.8 +/- 9.656 secs); assay type: functional, Heart; settings: route intraperitoneal
Rattus norvegicus [10] = test: Toxicity in anaesthetized-Wistar rat assessed as P-Q ECG interval at 40 mg/kg, ip after 30 mins (reference value: […] +/- 0.927 ms); assay type: organism-based; design: dose 40 mg/kg, route intraperitoneal; settings: in vivo, 0.5 h
Rattus norvegicus [11] = test: Antihypertensive activity in Wistar rat assessed as mean arterial pressure at 40 mg/kg, ip after 15 mins (reference value: 195.68 +/- 1.623 mmHg); assay type: functional, Artery; settings: route intraperitoneal
Rattus norvegicus [12] = test: Toxicity in anaesthetized-Wistar rat assessed as P-Q ECG interval at 40 mg/kg, ip measured immediately at 0 min (reference value: 52.4 +/- 0.927 ms); assay type: organism-based; design: dose 40 mg/kg, route intraperitoneal; settings: in vivo, 0 h
Rattus norvegicus [13] = test: Toxicity in anaesthetized-Wistar rat assessed as Q-T ECG interval at 40 mg/kg, ip after 45 mins (reference value: 78.8 +/- 0.927 ms); assay type: organism-based; design: dose 40 mg/kg, route intraperitoneal; settings: in vivo, 0.75 h
Rattus norvegicus [14] = test: Toxicity in anaesthetized-Wistar rat assessed as QRS ECG interval at 40 mg/kg, ip after 30 mins (reference value: 19.9 +/- 1.393 ms); assay type: organism-based; design: dose 40 mg/kg, route intraperitoneal; settings: in vivo, 0.5 h
Rattus norvegicus [15] = test: Toxicity in anaesthetized-Wistar rat assessed as Q-T ECG interval at 40 mg/kg, ip after 15 mins (reference value: 79.4 +/- 1.270 ms); assay type: organism-based; design: dose 40 mg/kg, route intraperitoneal; settings: in vivo, 0.25 h
Rattus norvegicus [16] = test: Toxicity in […] normotensive Wistar rat assessed as mean arterial pressure at 40 mg/kg, ip after 45 mins (reference value: 94.83 +/- 0.943 mmHg); assay type: organism-based, Artery; design: dose 40 mg/kg, route intraperitoneal; settings: in vivo, 0.75 h
Rattus norvegicus [17] = test: Toxicity in anaesthetized-Wistar rat assessed as P-Q ECG interval at 40 mg/kg, ip after 45 mins (reference value: 52.5 +/- 0.780 ms); assay type: organism-based; design: dose 40 mg/kg, route intraperitoneal; settings: in vivo, 0.75 h
Rattus norvegicus [18] = test: Toxicity in anaesthetized-Wistar rat assessed as Q-T ECG interval at 40 mg/kg, ip measured immediately at 0 min (reference value: 78.8 +/- 1.030 ms); assay type: organism-based; design: dose 40 mg/kg, route intraperitoneal; settings: in vivo, 0 h
Rattus norvegicus [19] = test: Toxicity in anaesthetized-Wistar rat assessed as P-Q ECG interval at 40 mg/kg, ip after 15 mins (reference value: 52.2 +/- 1.158 ms); assay type: organism-based; design: dose 40 mg/kg, route intraperitoneal; settings: in vivo, 0.25 h
Rattus norvegicus [20] = test: Toxicity in anesthetized-normotensive Wistar rat assessed as heart rate at 40 mg/kg, ip after 30 mins (reference value: 317.68 +/- 7.631 bpm); assay type: organism-based; design: dose 40 mg/kg, route intraperitoneal; settings: in vivo, 0.5 h
Rattus norvegicus [21] = test: Toxicity in […] normotensive Wistar rat assessed as mean arterial pressure at 40 mg/kg, ip after 30 mins (reference value: 94.68 +/- 1.213 mmHg); assay type: organism-based, Artery; design: dose 40 mg/kg, route intraperitoneal; settings: in vivo, 0.5 h
Rattus norvegicus [22] = test: Toxicity in anaesthetized-Wistar rat assessed as QRS ECG interval at 40 mg/kg, ip measured immediately at 0 min (reference value: 19.6 +/- 1.142 ms); assay type: organism-based; design: dose 40 mg/kg, route intraperitoneal; settings: in vivo, 0 h
Rattus norvegicus [23] = test: Toxicity in anaesthetized-Wistar rat assessed as QRS ECG interval at 40 mg/kg, ip after 60 mins (reference value: 19.3 +/- 0.873 ms); assay type: organism-based; design: dose 40 mg/kg, route intraperitoneal; settings: in vivo, 1 h
Rattus norvegicus [24] = test: Toxicity in […] normotensive Wistar rat assessed as mean arterial pressure at 40 mg/kg, ip after 60 mins (reference value: 95.07 +/- 1.973 mmHg); assay type: organism-based, Artery; design: dose 40 mg/kg, route intraperitoneal; settings: in vivo, 1 h
Rattus norvegicus [25] = test: Toxicity in anaesthetized-Wistar rat assessed as Q-T ECG interval at 40 mg/kg, ip after 30 mins (reference value: 78.3 +/- 0.860 ms); assay type: organism-based; design: dose 40 mg/kg, route intraperitoneal; settings: in vivo, 0.5 h
Rattus norvegicus [26] = test: Antihypertensive activity in Wistar rat assessed as mean arterial pressure at 40 mg/kg, ip after 30 mins (reference value: 194.72 +/- 1.002 mmHg); assay type: functional, Artery; settings: route intraperitoneal
Rattus norvegicus [27] = test: Toxicity in anaesthetized-Wistar rat assessed as QRS ECG interval at 40 mg/kg, ip after 45 mins (reference value: 20.2 +/- 1.348 ms); assay type: organism-based; design: dose 40 mg/kg, route intraperitoneal; settings: in vivo, 0.75 h
Rattus norvegicus [28] = test: Toxicity in anesthetized-normotensive Wistar rat assessed as heart rate at 40 mg/kg, ip after 60 mins (reference value: 314.96 +/- 9.442 bpm); assay type: organism-based; design: dose 40 mg/kg, route intraperitoneal; settings: in vivo, 1 h
Rattus norvegicus [29] = test: Toxicity in anaesthetized-Wistar rat assessed as Q-T ECG interval at 40 mg/kg, ip after 60 mins (reference value: 79.7 +/- 0.965 ms); assay type: organism-based; design: dose 40 mg/kg, route intraperitoneal; settings: in vivo, 1 h
Rattus norvegicus [30] = test: Toxicity in anesthetized-normotensive Wistar rat assessed as heart rate at 40 mg/kg, ip after 15 mins (reference value: 313.93 +/- 9.912 bpm); assay type: organism-based; design: dose 40 mg/kg, route intraperitoneal; settings: in vivo, 0.25 h
Rattus norvegicus [31] = test: Toxicity in anaesthetized-Wistar rat assessed as P-Q ECG interval at 40 mg/kg, ip after 60 mins (reference value: […] +/- 0.924 ms); assay type: organism-based; design: dose 40 mg/kg, route intraperitoneal; settings: in vivo, 1 h
Rattus norvegicus [32] = test: Antiarrhythmic activity in barium chloride-induced Wistar rat assessed as increase in appearance time of arrhythmia at 40 mg/kg, ip administered 60 mins before barium chloride challenge (reference value: 129.4 +/- 4.373 sec); assay type: functional, Heart; settings: route intraperitoneal

O=C1/C(=C\c2ccccc2)S/C(=N\c2ccccc2)N1CC(O)CN(c1ccccc1)c1ccccc1 (configuration not stated)
Activity (Rattus norvegicus [1]): 87.32 mmHg | Activity (Rattus norvegicus [2]): 159.27 mmHg | Activity (Rattus norvegicus [3]): 316.34 bpm | Activity (Rattus norvegicus [4]): 169.93 mmHg | Activity (Rattus norvegicus [5]): 289.26 bpm | Activity (Rattus norvegicus [6]): 194.26 mmHg | Activity (Rattus norvegicus [7]): 21.2 min | Activity (Rattus norvegicus [8]): 94.09 mmHg | Time (Rattus norvegicus [9]): 768.5 s | Activity (Rattus norvegicus [10]): 54.1 min | Activity (Rattus norvegicus [11]): 183.55 mmHg | Activity (Rattus norvegicus [12]): 50.6 ms | Activity (Rattus norvegicus [13]): 71.5 ms | Activity (Rattus norvegicus [14]): 22.1 ms | Activity (Rattus norvegicus [15]): 71.5 min | Activity (Rattus norvegicus [16]): 85.43 mmHg | Activity (Rattus norvegicus [17]): 53.4 min | Activity (Rattus norvegicus [18]): 70.2 min | Activity (Rattus norvegicus [19]): 51.2 min | Activity (Rattus norvegicus [20]): 292.41 bpm | Activity (Rattus norvegicus [21]): 85.08 mmHg | Activity (Rattus norvegicus [22]): 20.3 min | Activity (Rattus norvegicus [23]): 20.4 min | Activity (Rattus norvegicus [24]): 90.27 mmHg | Activity (Rattus norvegicus [25]): 72.3 min | Activity (Rattus norvegicus [26]): 169.59 mmHg | Activity (Rattus norvegicus [27]): 21.6 min | Activity (Rattus norvegicus [28]): 302.92 bpm | Activity (Rattus norvegicus [29]): 70.7 ms | Activity (Rattus norvegicus [30]): 305.46 bpm | Activity (Rattus norvegicus [31]): 52.6 min | Time (Rattus norvegicus [32]): 234.8 s
